Measured values reported in patent US20240261248A1, “METHODS FOR TREATING AUTISM SPECTRUM DISORDERS (ASD)” (SK BIOPHARMACEUTICALS CO., LTD., priority 2021, published 2024).

Experiments:
[1] = tested on: MeCP2 KO mouse primary cortical neurons; assay: Morphological recovery of MeCP2 KO primary neuron: neurite outgrowth (MAP2 immunostaining, DIV5); type: cell-based; details: Test compound 80 and 2000 nM from DIV1, analysed at DIV5; BDNF 50 ng/ml as comparator; FIG. 1
Experimental: (§1) MeCP2 KO mouse primary cortical neurons were cultured at PO and morphological change was analyzed via immunocytochemistry.
BDNF (50 ng/ml) or Test compound (80 and 2000 nM) was treated from DIV1 to indicated days. At DIV5, the neurite outgrowth was analyzed with MAP2 immunostaining for analysis of neurite formation.

[2] = tested on: MeCP2 knockout mice (Null); assay: Survival rate test in MeCP2 knockout mice (Null); type: in vivo, mouse
Experimental: Vehicle Null group: vehicle (0.9% saline, 10 ml/kg)
Test compound Null group: 100 mg/kg, po in 0.9% saline
About 5 week old Null mice were treated with daily oral injections of the vehicle or Test compound. MeCP2 knockout mice (Null) survival rate test was conducted until all animals were dead.
ILS ([…])%: 100×(median survival days of test group-median survival days of vehicle group)/median survival days of vehicle group (FIG. 4).

[3] = tested on: MeCP2 KO mice (HET); assay: Hindlimb clasping test in MeCP2 KO mice (HET); type: in vivo, mouse; details: 100 mg/kg, compared to vehicle-treated HET mice, FIG. 7
[4] = tested on: MeCP2 KO mice (HET); assay: Accelerating rotarod test in MeCP2 KO mice (HET); type: in vivo, mouse; details: accelerating speed 0-40 rpm over 5 min, compared to vehicle-treated HET mice, FIG. 6
Text: The rotarod test is widely used to evaluate the motor coordination of rodents, and is especially sensitive in detecting cerebellar dysfunction. The motor performance on the rotarod can be influenced by several factors, such as motor coordination, learning and cardiopulmonary endurance. Since several studies have shown that basal ganglia are essential in motor skill learning of serial motor sequence. The test measures parameters such as riding time (seconds) or endurance (RPM).
Mice were placed on the rotarod apparatus (Ugo basile, Italy) consisting of a rod that rotates at a constant or variable and accelerating speed of 4 rpm. Once a mouse loses its balance and falls onto an underlying platform, the timer automatically stops. Mice were exposed to the apparatus for 5 min training at a constant speed (4 rpm) and placed back on the rod after each fell. After a rest period of at least 1 hr, animals were placed back on the rotarod apparatus for testing. Once all animals in a test session were loaded on the rod, the rotarod apparatus was placed on accelerating speed (0-40 rpm) over 5 min and then the first falling time was recorded. The test was repeated three consecutive times per animal. For each test session, the RPM score at time of fall off the rod were recorded.

[5] = tested on: MeCP2 KO mouse primary cortical neurons; assay: Morphological recovery of MeCP2 KO primary neuron: synaptogenesis and soma size (Synapsin-1, MAP2, Hoechst, DIV14); type: cell-based; details: Test compound 1000 nM from DIV1, analysed at DIV14
Experimental: as §1
BDNF (50 ng/ml) or Test compound (1000 nM) was treated from DIV1 to indicated days. At DIV14, synaptogenesis and soma size were analyzed with Synapsin-1, MAP2 immunostaining and nuclear staining with Hoechst.

[6] = Body weight change in MeCP2 KO mice (HET); type: in vivo, mouse; details: 100 mg/kg po daily from about 5 weeks to 16 weeks old, FIG. 5
Experimental: Vehicle WT group: vehicle (0.9% saline, 10 ml/kg)
Vehicle HET group: vehicle (0.9% saline, 10 ml/kg)
Test compound HET group: 100 mg/kg, po in 0.9% saline
About 5 week old WT and HET mice were treated with daily oral injections of the vehicle or Test compound. Treatment conducted until the mice became 16 weeks old.

Structure (SMILES): NC(=O)OC[C@H](N)Cc1ccccc1 [Test compound, (R)-(beta-amino-benzenepropyl) carbamate]
- neurite length (neurite outgrowth) [1]: significantly enhanced the neurite length to a level similar to that of BDNF
- increase of ILS % ([2]; 100 mg/kg po daily from about 5 weeks old, compared to vehicle-treated Null mice, FIG. 4): 42.7%
- life span ([2]; 100 mg/kg po daily, vs vehicle, P<0.0046, Log lank test): significant enhancement of life span
- clasping [3]: clasped less than vehicle-treated HET mice
- speed at fall (RPM score) [4]: fell at higher speeds
- time to fall off from the rod [4]: took more time to fall off from the rod
- synaptogenesis ([5]; FIG. 2): significantly enhanced
- soma size ([5]; FIG. 3): significantly enhanced
- body weight change [6]: did not affect the body weight change
